From the NIST ThermoML archive (doi:10.1016/j.jct.2013.02.004)
Numbers after ± are expanded uncertainties.

Assay: activity coefficient (dimensionless); of the first substance listed, at infinite dilution; xn = mol fraction of the nth substance listed
Details: 101 kPa, Liquid, Chromatography, x1 = 0

Compound | activity coefficient (328.15 K) | activity coefficient (338.15 K) | activity coefficient (348.15 K) | activity coefficient (358.15 K) | activity coefficient (368.15 K) | activity coefficient (308.15 K) | activity coefficient (318.15 K)
CCc1ccccc1 [ethylbenzene] + CCCCCC[n+]1ccc2ccccc2c1.N#C[S-] | 3.08 ± 0.21 | 3.07 ± 0.21 | 3.07 ± 0.21 | 3.06 ± 0.21 | 3.05 ± 0.21 |  | 
CCCCCCC [heptane] + CCCCCC[n+]1ccc2ccccc2c1.N#C[S-] | 42.5 ± 2.9 | 38 ± 2.6 | 35.2 ± 2.4 | 32 ± 2.2 | 29.1 ± 2 | 53 ± 3.6 | 47 ± 3.2
C=CCCCC [hex-1-ene] + CCCCCC[n+]1ccc2ccccc2c1.N#C[S-] | 16.9 ± 1.2 | 15.4 ± 1.1 | 14.4 ± 1 | 13.3 ± 0.9 | 12.3 ± 0.8 | 20.2 ± 1.4 | 18.2 ± 1.2
CCCCCC [hexane] + CCCCCC[n+]1ccc2ccccc2c1.N#C[S-] | 35.6 ± 2.4 | 31.6 ± 2.2 | 28.3 ± 1.9 | 25.4 ± 1.7 | 23.1 ± 1.6 | 46.6 ± 3.2 | 40.5 ± 2.8
CO [methanol] + CCCCCC[n+]1ccc2ccccc2c1.N#C[S-] | 0.381 ± 0.033 | 0.378 ± 0.033 | 0.375 ± 0.033 | 0.376 ± 0.033 | 0.37 ± 0.033 |  | 
CC1CCCCC1 [methylcyclohexane] + CCCCCC[n+]1ccc2ccccc2c1.N#C[S-] | 19.8 ± 1.4 | 17.7 ± 1.2 | 16.4 ± 1.1 | 15.2 ± 1 | 14 ± 1 | 24.2 ± 1.7 | 21.5 ± 1.5
CCCCCCCCC [nonane] + CCCCCC[n+]1ccc2ccccc2c1.N#C[S-] | 68.2 ± 4.7 | 62.5 ± 4.3 | 59 ± 4 | 54.5 ± 3.7 | 51.3 ± 3.5 | 79.7 ± 5.5 | 73.2 ± 5
C=CCCCCCC [oct-1-ene] + CCCCCC[n+]1ccc2ccccc2c1.N#C[S-] | 27.1 ± 1.9 | 25.6 ± 1.8 | 24.4 ± 1.7 | 23.2 ± 1.6 | 22.2 ± 1.5 | 30.2 ± 2.1 | 28.5 ± 1.9
CCCCCCCC [octane] + CCCCCC[n+]1ccc2ccccc2c1.N#C[S-] | 53.3 ± 3.7 | 48.3 ± 3.3 | 45.7 ± 3.1 | 42.1 ± 2.9 | 38.6 ± 2.6 | 64.1 ± 4.4 | 58 ± 4
CCCC(C)=O [pentan-2-one] + CCCCCC[n+]1ccc2ccccc2c1.N#C[S-] | 2.1 ± 0.14 | 2.11 ± 0.14 | 2.12 ± 0.14 | 2.12 ± 0.14 | 2.13 ± 0.14 |  | 
CCC(=O)CC [pentan-3-one] + CCCCCC[n+]1ccc2ccccc2c1.N#C[S-] | 2.1 ± 0.14 | 2.11 ± 0.14 | 2.13 ± 0.14 | 2.15 ± 0.15 | 2.15 ± 0.15 |  | 
CCCO [propan-1-ol] + CCCCCC[n+]1ccc2ccccc2c1.N#C[S-] | 0.693 ± 0.047 | 0.681 ± 0.046 | 0.671 ± 0.045 | 0.664 ± 0.045 | 0.653 ± 0.045 |  | 
c1ccncc1 [pyridine] + CCCCCC[n+]1ccc2ccccc2c1.N#C[S-] | 0.703 ± 0.047 | 0.713 ± 0.048 | 0.722 ± 0.048 | 0.729 ± 0.048 | 0.745 ± 0.049 |  | 
C1CCOC1 [tetrahydrofuran] + CCCCCC[n+]1ccc2ccccc2c1.N#C[S-] | 1.46 ± 0.1 | 1.47 ± 0.1 | 1.48 ± 0.1 | 1.48 ± 0.1 | 1.5 ± 0.1 |  | 
c1ccsc1 [thiophene] + CCCCCC[n+]1ccc2ccccc2c1.N#C[S-] | 0.921 ± 0.058 | 0.943 ± 0.059 | 0.963 ± 0.061 | 0.98 ± 0.06 | 0.998 ± 0.062 |  | 
Cc1ccccc1 [toluene] + CCCCCC[n+]1ccc2ccccc2c1.N#C[S-] | 2.05 ± 0.14 | 2.07 ± 0.14 | 2.08 ± 0.14 | 2.1 ± 0.14 | 2.11 ± 0.14 |  | 
O [water] + CCCCCC[n+]1ccc2ccccc2c1.N#C[S-] | 0.401 ± 0.034 | 0.406 ± 0.034 | 0.41 ± 0.03 | 0.399 ± 0.034 | 0.418 ± 0.035 |  | 
